Measured values published in ChEMBL document CHEMBL1145498, “A systematic interaction map of validated kinase inhibitors with Ser/Thr kinases” (Proc Natl Acad Sci U S A, 2007).

Legend:
[1] = molecular target: Ribosomal protein S6 kinase alpha-3 (Homo sapiens) (UniProt P51812)
[2] = molecular target: Cyclin-dependent kinase 2 (Homo sapiens, UniProt P24941)
[3] = molecular target: T1, Serine/threonine-protein kinase 17A (Homo sapiens) (UniProt Q9UEE5)
T1 sequence (whole entry): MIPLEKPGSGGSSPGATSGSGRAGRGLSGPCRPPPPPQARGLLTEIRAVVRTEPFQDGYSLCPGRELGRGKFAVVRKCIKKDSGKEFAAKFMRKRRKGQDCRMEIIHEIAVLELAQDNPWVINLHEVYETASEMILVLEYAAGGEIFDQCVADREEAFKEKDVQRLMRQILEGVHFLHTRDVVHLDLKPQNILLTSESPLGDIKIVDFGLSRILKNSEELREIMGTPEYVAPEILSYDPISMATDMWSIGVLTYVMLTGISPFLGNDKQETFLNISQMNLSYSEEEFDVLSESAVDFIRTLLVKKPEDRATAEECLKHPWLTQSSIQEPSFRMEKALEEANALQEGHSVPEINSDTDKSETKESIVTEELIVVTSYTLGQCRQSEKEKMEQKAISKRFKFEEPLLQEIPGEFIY

[4] = molecular target: Serine/threonine-protein kinase pim-2 (Homo sapiens, UniProt Q9P1W9)
[5] = molecular target: Mitogen-activated protein kinase 6 (Homo sapiens) (UniProt Q16659)
[6] = molecular target: Serine/threonine-protein kinase 10 (Homo sapiens) (UniProt O94804)
[7] = molecular target: T2, Serine/threonine-protein kinase Nek2 (Homo sapiens) (UniProt P51955)
T2 sequence (whole entry): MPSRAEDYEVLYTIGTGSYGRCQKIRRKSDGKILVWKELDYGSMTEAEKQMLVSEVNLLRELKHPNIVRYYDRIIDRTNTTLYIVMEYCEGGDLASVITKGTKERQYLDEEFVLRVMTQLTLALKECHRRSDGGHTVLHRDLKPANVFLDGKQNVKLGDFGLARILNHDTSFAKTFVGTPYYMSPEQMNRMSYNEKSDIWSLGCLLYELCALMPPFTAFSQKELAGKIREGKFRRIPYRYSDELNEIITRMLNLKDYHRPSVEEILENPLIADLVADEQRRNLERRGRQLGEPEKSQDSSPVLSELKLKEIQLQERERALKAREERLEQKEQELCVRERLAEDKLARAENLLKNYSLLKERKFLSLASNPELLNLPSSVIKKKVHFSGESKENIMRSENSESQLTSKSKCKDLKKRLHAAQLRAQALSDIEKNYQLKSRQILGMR

[8] = molecular target: Serine/threonine-protein kinase PAK 4 (Homo sapiens) (UniProt O96013)
[9] = molecular target: Serine/threonine-protein kinase pim-1 (Homo sapiens) (UniProt P11309)
[10] = molecular target: Cyclin-dependent kinase 16 (Homo sapiens) (UniProt Q00536)
[11] = molecular target: Casein kinase I isoform gamma-1 (Homo sapiens) (UniProt Q9HCP0)
[12] = molecular target: Casein kinase I isoform gamma-2 (Homo sapiens) (UniProt P78368)
[13] = molecular target: Serine/threonine-protein kinase pim-3 (Homo sapiens) (UniProt Q86V86)
[14] = molecular target: STE20-like serine/threonine-protein kinase (Homo sapiens) (UniProt Q9H2G2)
[15] = molecular target: Serine/threonine-protein kinase VRK2 (Homo sapiens) (UniProt Q86Y07)
[16] = molecular target: T3, Serine/threonine-protein kinase VRK3 (Homo sapiens) (UniProt Q8IV63)
T3 sequence (whole entry): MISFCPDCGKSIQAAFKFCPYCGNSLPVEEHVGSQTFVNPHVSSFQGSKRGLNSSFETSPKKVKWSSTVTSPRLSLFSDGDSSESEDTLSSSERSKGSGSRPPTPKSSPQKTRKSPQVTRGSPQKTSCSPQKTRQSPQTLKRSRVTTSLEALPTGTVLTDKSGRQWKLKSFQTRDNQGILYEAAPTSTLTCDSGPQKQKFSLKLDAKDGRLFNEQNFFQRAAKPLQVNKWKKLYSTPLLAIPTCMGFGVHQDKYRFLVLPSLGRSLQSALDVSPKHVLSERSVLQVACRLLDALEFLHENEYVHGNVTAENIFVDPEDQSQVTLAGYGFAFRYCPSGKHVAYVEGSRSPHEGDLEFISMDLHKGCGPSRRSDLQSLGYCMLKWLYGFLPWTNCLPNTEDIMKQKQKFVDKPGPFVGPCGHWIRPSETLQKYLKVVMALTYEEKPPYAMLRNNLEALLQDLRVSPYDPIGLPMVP

Chain of Ribosomal protein S6 kinase alpha-3 (Homo sapiens) (P51812 whole entry): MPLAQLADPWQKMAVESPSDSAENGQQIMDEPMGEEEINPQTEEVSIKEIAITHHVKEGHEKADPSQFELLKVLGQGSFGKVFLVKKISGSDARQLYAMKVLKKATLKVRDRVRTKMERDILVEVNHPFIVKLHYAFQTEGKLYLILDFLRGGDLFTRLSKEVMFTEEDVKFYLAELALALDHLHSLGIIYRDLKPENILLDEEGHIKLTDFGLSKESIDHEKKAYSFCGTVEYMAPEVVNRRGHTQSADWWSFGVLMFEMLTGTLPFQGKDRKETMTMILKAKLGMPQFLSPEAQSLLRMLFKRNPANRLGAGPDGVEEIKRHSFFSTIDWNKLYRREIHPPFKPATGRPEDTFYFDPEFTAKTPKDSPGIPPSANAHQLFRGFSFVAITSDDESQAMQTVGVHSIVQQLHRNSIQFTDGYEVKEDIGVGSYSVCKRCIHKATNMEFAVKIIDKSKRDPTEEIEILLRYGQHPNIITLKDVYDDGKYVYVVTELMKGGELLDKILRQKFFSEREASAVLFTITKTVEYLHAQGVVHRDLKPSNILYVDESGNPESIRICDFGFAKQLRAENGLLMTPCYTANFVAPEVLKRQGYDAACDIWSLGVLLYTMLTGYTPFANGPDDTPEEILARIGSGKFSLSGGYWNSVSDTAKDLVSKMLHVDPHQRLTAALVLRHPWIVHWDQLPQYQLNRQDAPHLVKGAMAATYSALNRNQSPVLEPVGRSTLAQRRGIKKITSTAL
Chain of Casein kinase I isoform gamma-1 (Homo sapiens) (Q9HCP0 whole entry, looked up, canonical isoform): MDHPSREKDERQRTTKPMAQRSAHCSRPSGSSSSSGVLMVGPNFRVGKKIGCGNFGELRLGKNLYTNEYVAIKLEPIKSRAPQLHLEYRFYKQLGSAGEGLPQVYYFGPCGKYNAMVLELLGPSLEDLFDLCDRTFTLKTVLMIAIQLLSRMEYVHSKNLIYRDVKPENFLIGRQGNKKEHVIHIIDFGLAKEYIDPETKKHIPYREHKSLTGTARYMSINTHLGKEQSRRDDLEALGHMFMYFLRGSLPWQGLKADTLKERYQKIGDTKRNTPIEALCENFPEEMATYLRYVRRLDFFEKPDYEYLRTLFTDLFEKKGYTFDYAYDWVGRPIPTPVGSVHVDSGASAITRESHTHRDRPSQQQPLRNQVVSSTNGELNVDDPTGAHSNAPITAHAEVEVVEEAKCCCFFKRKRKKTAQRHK
Chain of Casein kinase I isoform gamma-2 (Homo sapiens) (P78368 whole entry, looked up, canonical isoform): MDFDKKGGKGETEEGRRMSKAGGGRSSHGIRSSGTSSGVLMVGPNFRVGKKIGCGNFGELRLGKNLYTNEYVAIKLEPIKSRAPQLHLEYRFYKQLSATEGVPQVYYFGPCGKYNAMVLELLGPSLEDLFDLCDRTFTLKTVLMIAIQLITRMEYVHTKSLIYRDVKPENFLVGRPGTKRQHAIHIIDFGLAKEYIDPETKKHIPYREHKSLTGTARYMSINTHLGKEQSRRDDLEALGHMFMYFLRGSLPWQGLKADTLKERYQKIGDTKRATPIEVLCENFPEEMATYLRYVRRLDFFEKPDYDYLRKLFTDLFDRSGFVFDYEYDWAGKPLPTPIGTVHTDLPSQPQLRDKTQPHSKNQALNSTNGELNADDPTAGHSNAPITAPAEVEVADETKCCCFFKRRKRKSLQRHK
Chain of Serine/threonine-protein kinase 10 (Homo sapiens) (O94804 whole entry, looked up): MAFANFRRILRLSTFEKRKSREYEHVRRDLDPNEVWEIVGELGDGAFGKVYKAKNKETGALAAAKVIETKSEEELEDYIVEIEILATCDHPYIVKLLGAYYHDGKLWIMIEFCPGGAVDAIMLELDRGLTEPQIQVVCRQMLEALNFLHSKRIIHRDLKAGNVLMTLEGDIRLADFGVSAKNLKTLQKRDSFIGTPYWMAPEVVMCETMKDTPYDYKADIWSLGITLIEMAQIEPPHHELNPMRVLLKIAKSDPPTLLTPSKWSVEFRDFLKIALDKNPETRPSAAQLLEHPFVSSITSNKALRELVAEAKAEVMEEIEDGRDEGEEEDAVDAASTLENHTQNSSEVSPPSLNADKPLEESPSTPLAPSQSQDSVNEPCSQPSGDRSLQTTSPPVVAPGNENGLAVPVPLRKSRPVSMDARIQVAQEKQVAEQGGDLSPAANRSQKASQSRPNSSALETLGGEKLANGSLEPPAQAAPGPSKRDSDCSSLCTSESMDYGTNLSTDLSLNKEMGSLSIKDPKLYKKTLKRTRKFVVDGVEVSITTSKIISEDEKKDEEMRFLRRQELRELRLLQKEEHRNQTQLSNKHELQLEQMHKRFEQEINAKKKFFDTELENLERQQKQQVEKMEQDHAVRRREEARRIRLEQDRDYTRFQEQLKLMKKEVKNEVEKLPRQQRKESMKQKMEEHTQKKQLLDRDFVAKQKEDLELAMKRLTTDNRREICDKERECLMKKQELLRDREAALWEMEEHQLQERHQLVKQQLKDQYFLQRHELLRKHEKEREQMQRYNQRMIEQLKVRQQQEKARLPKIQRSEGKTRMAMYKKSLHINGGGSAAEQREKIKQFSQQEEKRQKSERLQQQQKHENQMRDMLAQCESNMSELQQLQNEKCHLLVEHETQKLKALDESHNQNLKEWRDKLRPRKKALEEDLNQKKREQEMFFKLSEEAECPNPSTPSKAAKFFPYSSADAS
Chain of Serine/threonine-protein kinase VRK2 (Homo sapiens) (Q86Y07 whole entry): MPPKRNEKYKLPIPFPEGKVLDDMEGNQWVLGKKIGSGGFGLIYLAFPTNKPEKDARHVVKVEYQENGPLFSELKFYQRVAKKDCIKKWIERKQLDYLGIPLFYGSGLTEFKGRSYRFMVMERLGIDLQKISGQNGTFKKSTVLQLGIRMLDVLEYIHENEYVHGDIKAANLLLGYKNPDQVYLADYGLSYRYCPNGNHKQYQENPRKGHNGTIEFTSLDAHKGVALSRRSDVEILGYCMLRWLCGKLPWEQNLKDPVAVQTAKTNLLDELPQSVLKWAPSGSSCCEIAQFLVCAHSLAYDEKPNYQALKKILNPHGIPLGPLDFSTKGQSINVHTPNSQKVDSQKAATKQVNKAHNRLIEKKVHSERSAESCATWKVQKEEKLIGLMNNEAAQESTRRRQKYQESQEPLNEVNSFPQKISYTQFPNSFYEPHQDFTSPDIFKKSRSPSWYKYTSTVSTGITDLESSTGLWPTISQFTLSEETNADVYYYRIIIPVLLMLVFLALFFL
Chain of Mitogen-activated protein kinase 6 (Homo sapiens) (Q16659 whole entry): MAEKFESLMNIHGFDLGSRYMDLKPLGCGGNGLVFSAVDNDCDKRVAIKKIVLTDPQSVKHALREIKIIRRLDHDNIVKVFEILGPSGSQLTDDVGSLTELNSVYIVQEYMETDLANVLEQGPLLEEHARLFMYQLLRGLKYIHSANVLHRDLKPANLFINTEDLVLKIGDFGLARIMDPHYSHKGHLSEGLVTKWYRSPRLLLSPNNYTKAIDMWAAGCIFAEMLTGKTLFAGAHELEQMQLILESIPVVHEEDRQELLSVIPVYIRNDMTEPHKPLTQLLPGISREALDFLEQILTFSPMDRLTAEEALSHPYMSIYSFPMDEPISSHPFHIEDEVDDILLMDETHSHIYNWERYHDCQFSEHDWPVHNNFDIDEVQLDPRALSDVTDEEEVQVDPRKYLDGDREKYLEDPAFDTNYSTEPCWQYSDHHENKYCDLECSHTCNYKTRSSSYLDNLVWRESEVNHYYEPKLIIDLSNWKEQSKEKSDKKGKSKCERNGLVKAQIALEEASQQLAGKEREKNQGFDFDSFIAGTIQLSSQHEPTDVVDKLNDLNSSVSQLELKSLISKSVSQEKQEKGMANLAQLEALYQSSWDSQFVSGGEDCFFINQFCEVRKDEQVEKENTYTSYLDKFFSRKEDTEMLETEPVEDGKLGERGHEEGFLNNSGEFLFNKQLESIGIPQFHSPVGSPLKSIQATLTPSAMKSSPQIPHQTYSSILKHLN
Chain of Serine/threonine-protein kinase PAK 4 (Homo sapiens) (O96013 whole entry, looked up): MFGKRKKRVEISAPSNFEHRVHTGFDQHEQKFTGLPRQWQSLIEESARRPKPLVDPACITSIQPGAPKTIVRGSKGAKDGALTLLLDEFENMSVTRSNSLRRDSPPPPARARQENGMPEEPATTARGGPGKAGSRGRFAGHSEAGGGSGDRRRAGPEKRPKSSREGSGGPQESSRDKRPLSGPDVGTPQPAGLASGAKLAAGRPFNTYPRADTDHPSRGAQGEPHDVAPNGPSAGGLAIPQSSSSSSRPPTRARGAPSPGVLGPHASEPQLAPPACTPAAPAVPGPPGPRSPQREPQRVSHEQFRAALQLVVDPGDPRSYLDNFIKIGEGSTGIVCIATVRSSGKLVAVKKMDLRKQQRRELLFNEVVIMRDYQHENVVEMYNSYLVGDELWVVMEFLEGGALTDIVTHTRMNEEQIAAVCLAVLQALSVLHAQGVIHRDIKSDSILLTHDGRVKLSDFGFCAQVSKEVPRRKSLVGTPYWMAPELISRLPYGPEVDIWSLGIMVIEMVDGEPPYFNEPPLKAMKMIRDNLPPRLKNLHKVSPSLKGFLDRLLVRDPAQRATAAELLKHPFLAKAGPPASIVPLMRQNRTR
Chain of Serine/threonine-protein kinase pim-1 (Homo sapiens) (P11309 whole entry, looked up): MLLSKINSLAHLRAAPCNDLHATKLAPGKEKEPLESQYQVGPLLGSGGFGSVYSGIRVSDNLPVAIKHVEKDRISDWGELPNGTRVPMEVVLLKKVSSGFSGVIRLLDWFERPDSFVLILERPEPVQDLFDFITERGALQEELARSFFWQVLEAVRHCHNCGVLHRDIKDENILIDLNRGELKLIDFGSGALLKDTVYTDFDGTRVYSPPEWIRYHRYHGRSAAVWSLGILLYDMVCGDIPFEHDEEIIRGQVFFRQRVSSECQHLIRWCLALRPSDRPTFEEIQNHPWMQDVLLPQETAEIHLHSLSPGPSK

Row | SMILES | ΔTm [1] [°C] | ΔTm [2] [°C] | ΔTm [3] [°C] | ΔTm [4] [°C] | ΔTm [5] [°C] | ΔTm [6] [°C] | ΔTm [7] [°C] | ΔTm [8] [°C] | ΔTm [9] [°C] | ΔTm [10] [°C] | ΔTm [11] [°C] | ΔTm [12] [°C] | ΔTm [13] [°C] | ΔTm [14] [°C] | ΔTm [15] [°C] | ΔTm [16] [°C]
1 | Nc1n[nH]c2nnc(-c3c(-c4ccccc4)nn4ccccc34)cc12 | 3 | 0.1 | 0.8 | 0.6 | 1.3 | -0.2 | -0.2 | -0.1 | 1.1 | 0.2 | 0.9 | 0 | 1.2 | 0.7 |  | 
2 | O=c1c(-c2ccc(O)cc2)coc2cc(O)cc(O)c12 | 0.2 | 0.7 | 0.6 | 3.1 | 1.7 | 0 | -0.1 | 0.8 | 3.3 | -0.6 | 0.8 | 0.3 | 3 | 2.4 | 0.1 | 1.2
3 | COc1ccc(COc2ccc(Cc3cnc(N)nc3N)cc2OC)cc1 | -0.3 |  | -0.4 | 0.2 | 1.5 | -0.5 | -0.1 | -0.1 | 0 | 0.1 | 0.7 | -0.2 | 0 | 0.1 |  | 
4 | Cc1nc(Nc2ncc(C(=O)Nc3c(C)cccc3Cl)s2)cc(N2CCN(CCO)CC2)n1 | 0.9 | 0.2 |  | 0 | 0.9 |  | 0.1 | 1.6 | 0.3 | -0.4 | 0.3 | 0.2 | -0.2 |  |  | 
5 | O=C(O)c1cc(NCc2cc(O)ccc2O)ccc1O | -1 | 0.4 | 0.1 | 0.7 | -0.4 | -0.3 | 0.7 | 0 | 0 | 0.1 | 0.6 | 0.3 | -0.2 | -0.5 | -0.2 | 0.1
6 | Nc1nccc(-c2c(-c3ccc(F)cc3)ncn2C2CCNCC2)n1 | 0.8 | -0.8 | 0.4 | 0.2 | 0.3 | 1.5 | 1.1 | 1 | -0.1 | 0.5 | 3 | 2 | 0 | 1.1 | 0.2 | 0
7 | COc1cc2ncnc(Nc3ccc(F)c(Cl)c3)c2cc1OCCCN1CCOCC1 | 1.3 | 0 | 0.6 | 0.6 | 0.8 | 0 | 1.1 | 1.2 | 3.4 | -0.3 | 0.5 | -0.2 | -0.2 | 7.8 | 0.3 | 0.6
8 | O=C(O)Cc1ccc(O)c([N+](=O)[O-])c1 | -0.1 | 1.1 | -0.5 | -0.1 | 0.8 | 0 | 1.9 | 1.2 | 0.2 | -1.2 | 0.3 | 1 | 0.1 | 0 | 0.3 | -0.3
9 | O=C1C=C2C(=Nc3c2c2c(c4c3=NC3=C4CCC=C3)C=NC=2)CC1 | 4.4 | 4 | 2.6 | 5.2 | 1.4 | 3.9 | 2.8 | 3.8 | 7.5 | 0.8 | 0.9 | 1.4 | 1.7 | 6.4 | 4.7 | 
10 | C#Cc1cccc(Nc2ncnc3cc(OCCOC)c(OCCOC)cc23)c1 | -0.2 | -0.6 | 0.3 | 0 | 0 | 0 | 1 | 1.6 | 0 | -0.4 | 0.5 | -0.1 | -0.1 | 8.2 | 0.5 | 0.2
11 | CN1CCC(Nc2ncc3ncnc(Nc4ccc(F)c(Cl)c4)c3n2)CC1 [FALNIDAMOL] |  | 0.1 |  | 0.1 | 0 |  | 2.4 | 1.5 | 5.2 | 7.7 | 0.4 | -0.2 | 0.5 |  |  | 
12 | Clc1ccc(Nc2nnc(Cc3ccncc3)c3ccccc23)cc1 | -0.4 | -0.5 |  | -0.3 | 1.3 |  | 0.6 | -0.1 | -0.2 | 0.2 | -0.2 | 0 | -0.4 |  |  | 
13 | O=c1c(-c2ccc(F)cc2)c(-c2ccncc2)[nH]n1-c1ccc(Cl)cc1 | 1.2 | 0.2 | 0.2 | 0.2 | 0.7 | 4.3 | 1.4 | 0.7 | -0.1 | 0.3 | 0.5 | 0.7 | 0.5 | 2.4 | 0.7 | -1.1
14 | CCN(CC)CCNC(=O)c1c(C)[nH]c(/C=C2\C(=O)Nc3ccc(F)cc32)c1C |  |  | 8.3 | 0 |  | 11.3 | -0.4 | 3.3 | 2.3 |  |  |  | 7.1 | 6.5 |  | 
15 | Cc1ccc(NC(=O)c2ccc(CN3CCN(C)CC3)cc2)cc1Nc1nccc(-c2cccnc2)n1 | 2.1 |  | 1.3 | 0.6 | 0.5 | 0.8 | -0.8 | 0.4 | -0.1 | -0.4 | 0.5 | 0.8 | 0.2 | 1.7 | 0.5 | -0.2
16 | O=C1Nc2cc(Br)ccc2/C1=C1/Nc2ccccc2/C1=N\O | 0.8 | 4.1 | 1.9 | 0.4 | -0.2 | 7.7 | 0.7 | 1.8 | 0.1 | -1.7 | 3.5 | 0.3 | -0.1 | 4.4 | 0.3 | 1.3
17 | Cn1cc(/C=C2/C(=O)Nc3ccc(S(N)(=O)=O)cc32)c2ccccc21 | 7.8 | 1.3 | 6.1 | 8.2 | 5.5 | 6.3 | 0.9 | 3.7 | 3.1 | 1.9 | -0.9 | 0.5 | 3.4 | 8.4 |  | 
